Assay results taken from patent publication US10723765B2, “Beta-hairpin peptidomimetics as selective elastase inhibitors” (POLYPHOR AG, priority 2013, dated 2020).
Read-outs that look alike come from different tables or passages of the source. Values belong to the molecule of their own block, whether it stands above or below them. Non-standard residues stand in square brackets, D forms with d. Residues, ends and D or L forms follow the SMILES beside them. *: point of attachment. hTyr = N[C@@H](CCc1ccc(O)cc1)C(=O)O; Aad = N[C@@H](CCCC(=O)O)C(=O)O; NHPhenethyl = c1ccc(CCN*)cc1

Experiments:
Type in all cases: biochemical
[1] = molecular target: T1, human neutrophil elastase (Homo sapiens, UniProt P08246); assay: Inhibition of human neutrophil elastase (MeOSuc-AAPV-pNA hydrolysis)
T1 construct: purchased Serva Electrophoresis, Germany
T1 sequence (P08246 30-267): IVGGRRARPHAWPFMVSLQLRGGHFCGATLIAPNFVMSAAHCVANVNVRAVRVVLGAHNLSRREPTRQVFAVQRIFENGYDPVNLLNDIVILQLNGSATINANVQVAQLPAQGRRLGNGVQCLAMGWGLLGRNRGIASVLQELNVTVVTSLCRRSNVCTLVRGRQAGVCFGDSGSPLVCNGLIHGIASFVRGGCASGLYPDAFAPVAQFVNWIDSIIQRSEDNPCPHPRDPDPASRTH
Experimental: 2.2. Inhibition of Human Neutrophil Elastase
The ability of the peptides of the invention to inhibit the hydrolysis activity of human neutrophil elastase (Serva Electrophoresis, Germany) using the synthetic tetrapeptidic substrate MeOSuc-AAPV-pNA (Bachem, Switzerland) was determined as follows:
(§1) The above substrate (0.3 mM) and human neutrophil elastase (10 nM) were incubated at 37° C. with serial dilutions of the peptides (1% DMSO final) in assay buffer (50 mM Tris, pH 8, 300 mM NaCl, 0.01% Tween20). The release of pNA was followed by monitoring the change in absorbance at 405 nm for 30 minutes. Control assays with the same assay set-up as above, but without peptide, ran linearly. The dose-response data were fitted to the 4-parameter Hill equation providing the IC50 value using Graphpad (Prism 5).

[2] = molecular target: T2, porcine pancreatic elastase (Sus scrofa, UniProt P00772); assay: Inhibition of porcine pancreatic elastase (MeOSuc-AAA-pNA hydrolysis); conditions: for hNE/PPE selectivity: ratio of PPE IC50 to hNE IC50
T2 construct: purchased Sigma, USA
T2 sequence (P00772 27-266): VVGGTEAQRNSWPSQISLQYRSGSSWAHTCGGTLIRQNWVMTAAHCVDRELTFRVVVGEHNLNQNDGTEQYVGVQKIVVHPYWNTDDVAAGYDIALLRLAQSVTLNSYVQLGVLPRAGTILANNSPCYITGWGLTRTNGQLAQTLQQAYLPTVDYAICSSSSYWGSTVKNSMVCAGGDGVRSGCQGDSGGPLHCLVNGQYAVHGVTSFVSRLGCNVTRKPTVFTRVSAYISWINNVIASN
Experimental: 2.3. Inhibition of Porcine Pancreatic Elastase
The ability of the peptides of the invention to inhibit the hydrolysis activity of porcine pancreatic elastase (Sigma, USA) using the synthetic tripeptidic substrate MeOSuc-AAA-pNA (Bachem, Switzerland) was determined as follows:
as §1, with “(1” for “(0.3”, “porcine pancreatic” for “neutrophil”, “(15” for “(10”, “(0.5%” for “(1%”, “pH8, 100” for “pH 8, 300”

[3] = molecular target: T3, human proteinase 3 (Homo sapiens, UniProt P24158); assay: Inhibition of human proteinase 3 (Boc-Ala-Ala-Nva-SBzl); conditions: for hNE/hPr3 selectivity: ratio of hPr3 IC50 to hNE IC50
T3 construct: purchased Elastin Products Company, USA
T3 sequence (P24158 28-248): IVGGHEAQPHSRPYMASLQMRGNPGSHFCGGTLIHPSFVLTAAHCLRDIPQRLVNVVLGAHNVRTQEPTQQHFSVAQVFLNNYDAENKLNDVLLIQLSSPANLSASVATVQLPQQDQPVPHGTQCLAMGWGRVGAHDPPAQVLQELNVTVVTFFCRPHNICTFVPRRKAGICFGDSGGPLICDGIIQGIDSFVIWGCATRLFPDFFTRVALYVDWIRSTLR
Experimental: 2.4. Inhibition of Human Proteinase 3
The inactivation of human proteinase 3 (Elastin Products Company, USA) by the peptides of the invention using synthetic tripeptidic substrate Boc-Ala-Ala-Nva-SBzl (Elastin Products Company, USA) was determined as follows:
as §1, with “(1 mM), 4,4′-dithiodipyridine (250 μM)” for “(0.3 mM)”, “proteinase 3” for “neutrophil elastase”, “(0.5%” for “(1%”, “pH7.4, 150” for “pH 8, 300”, “reaction process” for “release of pNA”, “340” for “405”

[4] = 10 nM enzyme, 0.3 mM substrate, 37° C., pH 8, read-out: Human neutrophil elastase (hNE) IC50
[5] = 15 nM enzyme, 1 mM substrate, 37° C., pH8, read-out: Porcine pancreatic elastase (PPE) IC50
[6] = 10 nM enzyme, 1 mM substrate, 37° C., pH7.4, read-out: Human proteinase 3 (hPr3) IC50

SMILES: CC[C@H](C)[C@@H]1NC(=O)[C@H](CO)NC(=O)[C@H](C)NC(=O)[C@H]([C@@H](C)O)NC(=O)[C@H](CCC(=O)O)NC(=O)[C@H](CCCNC(=N)N)NC(=O)[C@@H]2CCCN2C(=O)[C@H]2CCCN2C(=O)[C@H]([C@@H](C)O)NC(=O)[C@H](CCCCN)NC(=O)[C@H](CCC(N)=O)NC(=O)[C@@H]2CCCN2C(=O)[C@@H]2CCCN2C1=O [Example 11, Cyclo(-Arg-Glu-Thr-Ala-Ser-Ile-Pro-Pro-Gln-Lys-Thr-^DPro-Pro-)] (cyclo(RETASIPPQKT[dP]P))
IC50 [1, 4]: 0.0125 µM
IC50 [2, 5]: > 100 µM
hNE/PPE selectivity [2]: >8000
IC50 [3, 6]: > 100 µM
hNE/hPr3 selectivity [3]: >8000

SMILES: CC[C@H](C)[C@@H]1NC(=O)[C@H](CO)NC(=O)[C@H](C)NC(=O)[C@H]([C@@H](C)O)NC(=O)[C@H](CCC(=O)O)NC(=O)[C@H](CCCNC(=N)N)NC(=O)[C@@H]2CCCN2C(=O)[C@H]2CCCN2C(=O)[C@H](CCCC(N)=O)NC(=O)[C@H](CCCCN)NC(=O)[C@H](Cc2ccc(O)cc2)NC(=O)[C@@H]2CCCN2C(=O)[C@@H]2CCCN2C1=O [Example 12, Cyclo(-Arg-Glu-Thr-Ala-Ser-Ile-Pro-Pro-Tyr-Lys-hGln-^DPro-Pro-)] (cyclo(RETASIPPYK[Aad](NH2)[dP]P))
IC50 [1, 4]: 0.01 µM
IC50 [2, 5]: > 100 µM
hNE/PPE selectivity [2]: >10000
IC50 [3, 6]: > 100 µM
hNE/hPr3 selectivity [3]: >10000

SMILES: CC[C@H](C)[C@@H]1NC(=O)[C@H](CO)NC(=O)[C@H](C)NC(=O)[C@H]([C@@H](C)O)NC(=O)[C@H](CCC(=O)O)NC(=O)[C@H](CCCNC(=N)N)NC(=O)[C@@H]2CCCN2C(=O)[C@H]2CCCN2C(=O)[C@H]([C@@H](C)O)NC(=O)[C@H](CCCCN)NC(=O)[C@H](Cc2ccc(O)cc2)NC(=O)[C@@H]2CCCN2C(=O)[C@@H]2CCCN2C1=O [Example 13, Cyclo(-Arg-Glu-Thr-Ala-Ser-Ile-Pro-Pro-Tyr-Lys-Thr-^DPro-Pro-)] (cyclo(RETASIPPYKT[dP]P))
IC50 [1, 4]: 0.0306 µM
IC50 [2, 5]: > 100 µM
hNE/PPE selectivity [2]: >3268
IC50 [3, 6]: > 100 µM
hNE/hPr3 selectivity [3]: >3268

SMILES: CC[C@H](C)[C@@H]1NC(=O)[C@H](CO)NC(=O)[C@H](C)NC(=O)[C@H]([C@@H](C)O)NC(=O)[C@H](CCC(=O)O)NC(=O)[C@H](CCC(=O)NCCc2ccccc2)NC(=O)[C@@H]2CCCN2C(=O)[C@H]2CCCN2C(=O)[C@H](Cc2ccc(O)cc2)NC(=O)[C@H](CCCCN)NC(=O)[C@H](CCC(N)=O)NC(=O)[C@@H]2CCCN2C(=O)[C@@H]2CCCN2C1=O [Example 15, Cyclo(-Glu(Phenethyl)-Glu-Thr-Ala-Ser-Ile-Pro-Pro-Gln-Lys-Tyr-^DPro-Pro-)] (cyclo(E(NHPhenethyl)ETASIPPQKY[dP]P))
IC50 [1]: 0.0186 µM
IC50 [2]: 1.62 µM
hNE/PPE selectivity [2]: 87
IC50 [3]: 6.69 µM
hNE/hPr3 selectivity [3]: 360

The remaining lines, values ahead:

IC50 [1, 4]: 0.0203 µM
IC50 [2, 5]: 4.65 µM
hNE/PPE selectivity [2]: 229
IC50 [3, 6]: 77.6 µM
hNE/hPr3 selectivity [3]: 3823
SMILES: CC[C@H](C)[C@@H]1NC(=O)[C@H](CO)NC(=O)[C@H](C)NC(=O)[C@H]([C@@H](C)O)NC(=O)[C@H](CCC(=O)O)NC(=O)[C@H](CCCNC(=N)N)NC(=O)[C@@H]2CCCN2C(=O)[C@H]2CCCN2C(=O)[C@H](Cc2c[nH]cn2)NC(=O)[C@H](CCCCN)NC(=O)[C@H](Cc2ccc(O)cc2)NC(=O)[C@@H]2CCCN2C(=O)[C@@H]2CCCN2C1=O [Example 14, Cyclo(-Arg-Glu-Thr-Ala-Ser-Ile-Pro-Pro-Tyr-Lys-His-^DPro-Pro-)] (cyclo(RETASIPPYKH[dP]P))

IC50 [1, 4]: 0.0264 µM
IC50 [2, 5]: > 100 µM
hNE/PPE selectivity [2]: >3788
IC50 [3, 6]: > 100 µM
hNE/hPr3 selectivity [3]: >3788
SMILES: CC[C@H](C)[C@@H]1NC(=O)[C@H](CO)NC(=O)[C@H](C)NC(=O)[C@H]([C@@H](C)O)NC(=O)[C@H](C(C)C)NC(=O)[C@H](CCCNC(=N)N)NC(=O)[C@@H]2CCCN2C(=O)[C@H]2CCCN2C(=O)[C@H]([C@@H](C)O)NC(=O)[C@H](CCCCN)NC(=O)[C@H](CCC(N)=O)NC(=O)[C@@H]2CCCN2C(=O)[C@@H]2CCCN2C1=O [Example 16, Cyclo(-Arg-Val-Thr-Ala-Ser-Ile-Pro-Pro-Gln-Lys-Thr-^DPro-Pro-)] (cyclo(RVTASIPPQKT[dP]P))

IC50 [1, 4]: 0.0156 µM
IC50 [2, 5]: 66.4 µM
hNE/PPE selectivity [2]: 4256
IC50 [3, 6]: 83.9 µM
hNE/hPr3 selectivity [3]: 5378
SMILES: CC[C@H](C)[C@@H]1NC(=O)[C@H](CO)NC(=O)[C@H](C)NC(=O)[C@H]([C@@H](C)O)NC(=O)[C@H](CCc2ccc(O)cc2)NC(=O)[C@H](CCCNC(=N)N)NC(=O)[C@@H]2CCCN2C(=O)[C@H]2CCCN2C(=O)[C@H]([C@@H](C)O)NC(=O)[C@H](CCCCN)NC(=O)[C@H](CCC(N)=O)NC(=O)[C@@H]2CCCN2C(=O)[C@@H]2CCCN2C1=O [Example 17, Cyclo(-Arg-hTyr-Thr-Ala-Ser-Ile-Pro-Pro-Gln-Lys-Thr-^DPro-Pro-)] (cyclo(R[hTyr]TASIPPQKT[dP]P))

IC50 [1, 4]: 0.0069 µM
IC50 [2, 5]: 7.2 µM
hNE/PPE selectivity [2]: 1043
IC50 [3, 6]: 1.8 µM
hNE/hPr3 selectivity [3]: 261
SMILES: CC[C@H](C)[C@@H]1NC(=O)[C@H](CO)NC(=O)[C@H](C)NC(=O)[C@H]([C@@H](C)O)NC(=O)[C@H](C(C)C)NC(=O)[C@H](CCCNC(=N)N)NC(=O)[C@@H]2CCCN2C(=O)[C@H]2CCCN2C(=O)[C@H](Cc2ccc(O)cc2)NC(=O)[C@H](CCCCN)NC(=O)[C@H](CCC(N)=O)NC(=O)[C@@H]2CCCN2C(=O)[C@@H]2CCCN2C1=O [Example 18, Cyclo(-Arg-Val-Thr-Ala-Ser-Ile-Pro-Pro-Gln-Lys-Tyr-^DPro-Pro-)] (cyclo(RVTASIPPQKY[dP]P))
